Measurements as given in patent publication US10820591B2, “Substituted sulfonyl amides for controlling animal pests” (Bayer Aktiengesellschaft, priority 2016, dated 2020).

Each molecule was assayed on Meloidogyne incognita (assay: Meloidogyne incognita test (sand, lettuce, gall formation)). Settings: Meloidogyne incognita, 336 h, 20 ppm, after 14 days; read-out: nematicidal efficacy (formation of galls).
Assay type: in vivo
Summary of the method: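 Gall counts on lettuce roots were scored after 14 days in sand inoculated with root-knot nematode eggs/larvae plus compound diluted in water. Values run from 0% (galls as in untreated plants) to 100% (gall-free).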

`O=C(NS(=O)(=O)c1ccccc1Cl)c1cn(-c2ccccc2F)cn1` [I-229] and `O=C(NS(=O)(=O)c1cc(Cl)ccc1Cl)c1cn(-c2ccccc2F)cn1` [I-232] are the same in pest or weed control at 20 ppm: 100% for the first, 100% for the second.

First: O=C(NS(=O)(=O)c1cc(Cl)ccc1Cl)c1cn(-c2cc(Cl)cc(Cl)c2)cn1 [I-230]
Second: O=C(NS(=O)(=O)c1cc(F)ccc1F)c1cn(-c2cc(Cl)cc(Cl)c2)cn1 [I-234]
The pest or weed control at 20 ppm of the first is higher: 100% for the first, 70% for the second.

`COc1ccc(Cl)cc1S(=O)(=O)NC(=O)c1cn(-c2cc(Cl)ccc2Cl)cn1` [I-231] and `O=C(NS(=O)(=O)c1cc(F)ccc1F)c1cn(-c2cc(Cl)ccc2Cl)cn1` [I-233] are the same in pest or weed control at 20 ppm: 100% for the first, 100% for the second.

`O=C(NS(=O)(=O)c1cc(C(F)(F)F)ccc1Br)c1cn(-c2cc(Cl)cc(Cl)c2)cn1` [I-235] and `O=C(NS(=O)(=O)c1ccc(Cl)cc1Cl)c1cn(-c2cc(Cl)cc(C(F)(F)F)c2)cn1` [I-309] are the same in pest or weed control at 20 ppm: 90% for the first, 90% for the second.

`O=C(NS(=O)(=O)c1ccccc1)c1cn(-c2cc(F)cc(Cl)c2)cn1` [I-236] and `O=C(NS(=O)(=O)c1ccccc1)c1cn(-c2cc(F)cc(F)c2)cn1` [I-237] are the same in pest or weed control at 20 ppm: 90% for the first, 90% for the second.

Going from `O=C(NS(=O)(=O)c1ccccc1Cl)c1cn(-c2cc(F)cc(C(F)(F)F)c2)cn1` [I-238] to `O=C(NS(=O)(=O)c1ccccc1Cl)c1cn(-c2cc(Br)cc(C(F)(F)F)c2)cn1` [I-277], the pest or weed control at 20 ppm falls from 90% to 70%.

First: O=C(NS(=O)(=O)c1c(Cl)cccc1Cl)c1cn(-c2cc(F)cc(C(F)(F)F)c2)cn1 [I-239]
Second: O=C(NS(=O)(=O)c1c(Cl)cccc1Cl)c1cn(-c2cc(Br)cc(C(F)(F)F)c2)cn1 [I-297]
The pest or weed control at 20 ppm of the first is higher: 100% for the first, 90% for the second.

Compared with `O=C(NS(=O)(=O)c1ccccc1Cl)c1cn(-c2cc(F)cc(Cl)c2)cn1` [I-240], `O=C(NS(=O)(=O)c1ccccc1Cl)c1cn(-c2cc(Cl)cc(C(F)(F)F)c2)cn1` [I-278] is lower in pest or weed control at 20 ppm: 100% for the first, 90% for the second.

Going from `O=C(NS(=O)(=O)c1c(Cl)cccc1Cl)c1cn(-c2cc(F)cc(Cl)c2)cn1` [I-241] to `O=C(NS(=O)(=O)c1c(Cl)cccc1Cl)c1cn(-c2cc(Br)cc(Br)c2)cn1` [I-293], the pest or weed control at 20 ppm rises from 90% to 100%.

`O=C(NS(=O)(=O)c1ccccc1Cl)c1cn(-c2cccc(Cl)c2Cl)cn1` [I-242] and `O=C(NS(=O)(=O)c1ccccc1Cl)c1cn(-c2c(Cl)cccc2Cl)cn1` [I-244] are the same in pest or weed control at 20 ppm: 100% for the first, 100% for the second.

`O=C(NS(=O)(=O)c1c(Cl)cccc1Cl)c1cn(-c2cccc(Cl)c2Cl)cn1` [I-243] and `O=C(NS(=O)(=O)c1c(Cl)cccc1Cl)c1cn(-c2c(Cl)cccc2Cl)cn1` [I-245] are the same in pest or weed control at 20 ppm: 100% for the first, 100% for the second.

Compared with `COc1ccc(Cl)c(S(=O)(=O)NC(=O)c2cn(-c3cccc(Cl)c3Cl)cn2)c1` [I-246], `COc1ccc(Cl)c(S(=O)(=O)NC(=O)c2cn(-c3c(Cl)cccc3Cl)cn2)c1` [I-251] is lower in pest or weed control at 20 ppm: 100% for the first, 90% for the second.

`COc1ccc(Cl)c(S(=O)(=O)NC(=O)c2cn(-c3cc(F)cc(Cl)c3)cn2)c1` [I-247] and `COc1ccc(Cl)c(S(=O)(=O)NC(=O)c2cn(-c3cc(F)cc(F)c3)cn2)c1` [I-287] are the same in pest or weed control at 20 ppm: 100% for the first, 100% for the second.

`O=C(NS(=O)(=O)c1c(F)cccc1F)c1cn(-c2cccc(Cl)c2Cl)cn1` [I-248] and `O=C(NS(=O)(=O)c1ccccc1Cl)c1cn(-c2cc(F)cc(F)c2Cl)cn1` [I-310] are the same in pest or weed control at 20 ppm: 100% for the first, 100% for the second.

`O=C(NS(=O)(=O)c1c(F)cccc1F)c1cn(-c2cc(F)cc(C(F)(F)F)c2)cn1` [I-249] and `O=C(NS(=O)(=O)c1ccccc1)c1cn(-c2cc(F)cc(C(F)(F)F)c2)cn1` [I-301] are the same in pest or weed control at 20 ppm: 100% for the first, 100% for the second.

Going from `Cc1nc(C(=O)NS(=O)(=O)c2ccccc2Cl)cn1-c1ccccc1` [I-252] to `Cc1nc(C(=O)NS(=O)(=O)c2ccccc2Cl)cn1-c1ccc(Cl)cc1` [I-257], the pest or weed control at 20 ppm falls from 100% to 90%.

`Cc1nc(C(=O)NS(=O)(=O)c2ccccc2)cn1-c1ccc(Cl)cc1` [I-256] and `Cc1nc(C(=O)NS(=O)(=O)c2cccc(Cl)c2)cn1-c1ccc(Cl)cc1` [I-261] are the same in pest or weed control at 20 ppm: 100% for the first, 100% for the second.

Compared with `Cc1nc(C(=O)NS(=O)(=O)c2c(Cl)cccc2Cl)cn1-c1ccc(Cl)cc1` [I-258], `Cc1nc(C(=O)NS(=O)(=O)c2c(Cl)cccc2Cl)cn1-c1ccccc1Cl` [I-265] is higher in pest or weed control at 20 ppm: 70% for the first, 90% for the second.

`COc1ccc(Cl)c(S(=O)(=O)NC(=O)c2cn(-c3ccc(Cl)cc3)c(C)n2)c1` [I-259] and `COc1ccc(Cl)c(S(=O)(=O)NC(=O)c2cn(-c3cc(Cl)cc(Cl)c3)c(C)n2)c1` [I-318] are the same in pest or weed control at 20 ppm: 100% for the first, 100% for the second.

Going from `COc1ccc(Cl)c(S(=O)(=O)NC(=O)c2cn(-c3ccccc3F)c(C)n2)c1` [I-260] to `COc1ccc(Cl)c(S(=O)(=O)NC(=O)c2cn(-c3cccc(Cl)c3Cl)c(C)n2)c1` [I-263], the pest or weed control at 20 ppm rises from 70% to 90%.

`Cc1nc(C(=O)NS(=O)(=O)c2ccc(Cl)cc2)cn1-c1ccc(Cl)cc1` [I-262] and `Cc1nc(C(=O)NS(=O)(=O)c2ccc(Cl)cc2)cn1-c1cccc(Cl)c1Cl` [I-271] are the same in pest or weed control at 20 ppm: 100% for the first, 100% for the second.

First: Cc1nc(C(=O)NS(=O)(=O)c2c(Cl)cccc2Cl)cn1-c1cccc(Cl)c1Cl [I-267]
Second: Cc1nc(C(=O)NS(=O)(=O)c2c(Cl)cccc2Cl)cn1-c1cccc(C(F)(F)F)c1 [I-274]
The pest or weed control at 20 ppm of the first is higher: 100% for the first, 90% for the second.

Going from `Cc1nc(C(=O)NS(=O)(=O)c2ccccc2)cn1-c1ccccc1Cl` [I-270] to `Cc1nc(C(=O)NS(=O)(=O)c2ccccc2)cn1-c1cc(Cl)cc(Cl)c1` [I-315], the pest or weed control at 20 ppm rises from 90% to 100%.

First: O=C(NS(=O)(=O)c1ccccc1)c1cn(-c2cc(Cl)cc(C(F)(F)F)c2)cn1 [I-272]
Second: O=C(NS(=O)(=O)c1ccccc1)c1cn(-c2cc(Br)cc(C(F)(F)F)c2)cn1 [I-276]
The pest or weed control at 20 ppm of the first is higher: 90% for the first, 70% for the second.

`O=C(NS(=O)(=O)c1ccccc1)c1cn(-c2cc(Br)cc(Br)c2)cn1` [I-273] and `O=C(NS(=O)(=O)c1ccccc1Cl)c1cn(-c2cc(Br)cc(Br)c2)cn1` [I-289] are the same in pest or weed control at 20 ppm: 90% for the first, 90% for the second.

`COc1ccc(Cl)c(S(=O)(=O)NC(=O)c2cn(-c3cccc(C(F)(F)F)c3)c(C)n2)c1` [I-275] and `COc1ccc(Cl)c(S(=O)(=O)NC(=O)c2cn(-c3cc(F)cc(F)c3)c(C)n2)c1` [I-320] are the same in pest or weed control at 20 ppm: 100% for the first, 100% for the second.

`COc1ccc(Cl)c(S(=O)(=O)NC(=O)c2cn(-c3cc(Br)cc(C(F)(F)F)c3)cn2)c1` [I-279] and `COc1ccc(Cl)c(S(=O)(=O)NC(=O)c2cn(-c3cc(Cl)cc(C(F)(F)F)c3)cn2)c1` [I-280] are the same in pest or weed control at 20 ppm: 90% for the first, 90% for the second.

`COc1ccc(Cl)c(S(=O)(=O)NC(=O)c2cn(-c3cc(C)cc(C(F)(F)F)c3)cn2)c1` [I-281] and `COc1ccc(Cl)c(S(=O)(=O)NC(=O)c2cn(-c3cc(C(F)(F)F)cc(C(F)(F)F)c3)cn2)c1` [I-298] are the same in pest or weed control at 20 ppm: 90% for the first, 90% for the second.

Compared with `COc1ccc(Cl)c(S(=O)(=O)NC(=O)c2cn(-c3cc(Br)cc(Br)c3)cn2)c1` [I-282], `COc1ccc(Cl)c(S(=O)(=O)NC(=O)c2cn(-c3cc(C)cc(C)c3)cn2)c1` [I-288] is higher in pest or weed control at 20 ppm: 90% for the first, 100% for the second.

Going from `Cc1cc(C)cc(-n2cnc(C(=O)NS(=O)(=O)c3ccccc3Cl)c2)c1` [I-283] to `Cc1cc(-n2cnc(C(=O)NS(=O)(=O)c3ccccc3Cl)c2)cc(C(F)(F)F)c1` [I-290], the pest or weed control at 20 ppm rises from 90% to 100%.

`O=C(NS(=O)(=O)c1ccccc1Cl)c1cn(-c2cc(C(F)(F)F)cc(C(F)(F)F)c2)cn1` [I-285] and `O=C(NS(=O)(=O)c1ccccc1C(F)(F)F)c1cn(-c2cc(Cl)cc(C(F)(F)F)c2)cn1` [I-295] are the same in pest or weed control at 20 ppm: 90% for the first, 90% for the second.

`O=C(NS(=O)(=O)c1c(Cl)cccc1Cl)c1cn(-c2cc(C(F)(F)F)cc(C(F)(F)F)c2)cn1` [I-292] and `O=C(NS(=O)(=O)c1ccccc1C(F)(F)F)c1cn(-c2cc(C(F)(F)F)cc(C(F)(F)F)c2)cn1` [I-294] are the same in pest or weed control at 20 ppm: 90% for the first, 90% for the second.

Compared with `O=C(NS(=O)(=O)c1ccccc1C(F)(F)F)c1cn(-c2cc(F)cc(C(F)(F)F)c2)cn1` [I-296], `O=C(NS(=O)(=O)c1ccccc1Cl)c1cn(-c2cc(F)c(F)c(F)c2)cn1` [I-307] is higher in pest or weed control at 20 ppm: 90% for the first, 100% for the second.

`Cc1cc(C)cc(-n2cnc(C(=O)NS(=O)(=O)c3c(Cl)cccc3Cl)c2)c1` [I-299] and `O=C(NS(=O)(=O)c1c(Cl)cccc1Cl)c1cn(-c2cc(Cl)c(Cl)c(Cl)c2)cn1` [I-305] are the same in pest or weed control at 20 ppm: 90% for the first, 90% for the second.

Compared with `O=C(NS(=O)(=O)c1ccccc1Cl)c1cn(-c2cc(Cl)c(Cl)c(Cl)c2)cn1` [I-302], `O=C(NS(=O)(=O)c1ccccc1Cl)c1cn(-c2cc(Cl)c(Br)c(Cl)c2)cn1` [I-311] is lower in pest or weed control at 20 ppm: 100% for the first, 90% for the second.

`COc1ccc(Cl)c(S(=O)(=O)NC(=O)c2cn(-c3cc(Cl)c(Cl)c(Cl)c3)cn2)c1` [I-303] and `O=C(NS(=O)(=O)c1ccc(Cl)cc1Cl)c1cn(-c2cc(Cl)c(Cl)c(Cl)c2)cn1` [I-306] are the same in pest or weed control at 20 ppm: 90% for the first, 90% for the second.

`O=C(NS(=O)(=O)c1ccccc1)c1cn(-c2cc(Cl)c(Cl)c(Cl)c2)cn1` [I-304] and `O=C(NS(=O)(=O)c1ccccc1)c1cn(-c2cc(Cl)c(Br)c(Cl)c2)cn1` [I-312] are the same in pest or weed control at 20 ppm: 90% for the first, 90% for the second.

`O=C(NS(=O)(=O)c1ccccc1Cl)c1cn(-c2cc(F)c(Br)c(F)c2)cn1` [I-308] and `O=C(NS(=O)(=O)c1c(Cl)cccc1Cl)c1cn(-c2cc(Cl)c(Br)c(Cl)c2)cn1` [I-313] are the same in pest or weed control at 20 ppm: 90% for the first, 90% for the second.

Work on `CCOc1ccc(Cl)c(S(=O)(=O)NC(=O)c2cn(-c3cc(Cl)cc(Cl)c3)c(C)n2)c1` [I-319] yielded a pest or weed control at 20 ppm of 100%.
